Measurements published in patent publication US6677338B2, “Serotonin transport inhibitors” (President and Fellows of Harvard College, priority 1997, dated 2004).
“Also recorded” adds a separate entry of the source. Read-outs that look alike come from different tables or passages of the source.

Columns and labels:
[1] = biological target: T1, human SERT (Homo sapiens, UniProt P31645); assay: (3H)citalopram binding in HEK-293 cells transfected with the human SERT
T1 construct: expressed in transfected cells; host or cells: HEK-293 (stably or transiently transfected, pcDNA3.1 vector)
T1 sequence (P31645 whole entry): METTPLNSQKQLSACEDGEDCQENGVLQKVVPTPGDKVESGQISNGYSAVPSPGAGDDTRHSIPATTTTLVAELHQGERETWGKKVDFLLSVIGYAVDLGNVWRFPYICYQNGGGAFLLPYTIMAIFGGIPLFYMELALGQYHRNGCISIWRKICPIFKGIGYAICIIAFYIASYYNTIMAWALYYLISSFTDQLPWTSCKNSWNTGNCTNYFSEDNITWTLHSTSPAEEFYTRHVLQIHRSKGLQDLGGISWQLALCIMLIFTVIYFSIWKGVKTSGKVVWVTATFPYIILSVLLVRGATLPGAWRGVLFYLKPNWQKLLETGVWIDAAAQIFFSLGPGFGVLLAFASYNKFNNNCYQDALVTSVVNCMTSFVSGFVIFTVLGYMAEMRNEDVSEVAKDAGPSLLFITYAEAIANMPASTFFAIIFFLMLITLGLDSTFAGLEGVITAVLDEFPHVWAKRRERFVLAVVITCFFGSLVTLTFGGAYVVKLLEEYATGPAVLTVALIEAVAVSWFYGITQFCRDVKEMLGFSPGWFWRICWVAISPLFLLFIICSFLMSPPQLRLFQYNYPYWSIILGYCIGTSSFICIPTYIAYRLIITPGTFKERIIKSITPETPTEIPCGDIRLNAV

[2] = biological target: T2, Dopamine transporter (DAT) (Macaca fascicularis, UniProt Q9GJT6); assay: (3H)CFT competition binding in monkey striatum homogenates
T2 construct: in monkey striatum homogenates; from tissue; host or cells: monkey striatum homogenate
T2 sequence (Q9GJT6 whole entry): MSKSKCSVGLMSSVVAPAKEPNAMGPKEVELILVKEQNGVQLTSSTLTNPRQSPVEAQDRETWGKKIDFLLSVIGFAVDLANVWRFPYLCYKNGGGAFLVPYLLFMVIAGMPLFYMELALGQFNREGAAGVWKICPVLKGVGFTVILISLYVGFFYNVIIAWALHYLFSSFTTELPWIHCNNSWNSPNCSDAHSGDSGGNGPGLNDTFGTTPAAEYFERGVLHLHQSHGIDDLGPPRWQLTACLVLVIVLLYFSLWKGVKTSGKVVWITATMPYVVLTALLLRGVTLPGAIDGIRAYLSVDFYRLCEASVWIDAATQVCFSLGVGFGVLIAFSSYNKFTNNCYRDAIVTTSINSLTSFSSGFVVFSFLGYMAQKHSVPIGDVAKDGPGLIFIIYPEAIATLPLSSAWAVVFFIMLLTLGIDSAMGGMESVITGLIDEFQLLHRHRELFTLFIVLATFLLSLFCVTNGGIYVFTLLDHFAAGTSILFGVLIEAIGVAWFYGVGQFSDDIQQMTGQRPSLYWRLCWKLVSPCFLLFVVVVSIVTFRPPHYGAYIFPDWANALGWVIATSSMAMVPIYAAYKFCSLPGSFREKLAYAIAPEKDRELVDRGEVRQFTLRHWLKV
Method: (§1) Values were determined by fitting data to the equation for competitive binding with EBDA computer program. Data represent the mean ±S.D. of two or more experiments.

[3] = biological target: T1, human SERT; assay: (3H)serotonin transport in HEK-293 cells transfected with the human SERT; format: cell-based; settings: for blocked (3H)serotonin transport (in words): comparable to imipramine, fluoxetine and amitriptyline
[4] = biological target: T3, Serotonin transporter (SERT) (Macaca mulatta, UniProt Q9MYX0); assay: (3H)citalopram competition binding in monkey striatum homogenates; settings: for SERT/DAT Selectivity: fold selectivity for serotonin over dopamine transporter
T3 construct: in monkey striatum homogenates; from tissue; host or cells: monkey striatum homogenate
T3 sequence (Q9MYX0 whole entry): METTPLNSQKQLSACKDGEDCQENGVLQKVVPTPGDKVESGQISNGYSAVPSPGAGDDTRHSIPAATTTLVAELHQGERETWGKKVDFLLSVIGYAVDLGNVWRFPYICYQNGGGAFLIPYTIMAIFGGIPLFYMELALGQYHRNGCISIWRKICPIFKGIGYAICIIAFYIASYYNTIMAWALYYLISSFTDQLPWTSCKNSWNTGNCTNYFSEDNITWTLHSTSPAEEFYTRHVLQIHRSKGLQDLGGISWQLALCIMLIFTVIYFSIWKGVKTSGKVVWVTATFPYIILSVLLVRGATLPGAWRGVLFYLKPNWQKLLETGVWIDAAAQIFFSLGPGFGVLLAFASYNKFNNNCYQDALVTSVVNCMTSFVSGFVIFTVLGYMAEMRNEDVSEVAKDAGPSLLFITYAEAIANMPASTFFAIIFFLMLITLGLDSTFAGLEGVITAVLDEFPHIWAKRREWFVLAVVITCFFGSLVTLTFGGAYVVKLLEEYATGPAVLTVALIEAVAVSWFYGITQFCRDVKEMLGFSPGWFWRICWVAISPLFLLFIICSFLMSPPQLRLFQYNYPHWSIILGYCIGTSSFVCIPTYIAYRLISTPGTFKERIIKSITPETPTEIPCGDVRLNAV
Method: Initial screening procedures for non-amines were conducted in primate striatum, a standard source of brain transporters for drug screening and for generating structure-activity relationships for this series (Table 1). […] The binding experiments were terminated by rapid filtration and radioactivity measured as described above. […] The experiments were performed in triplicate and each value is the mean ±S.E. of 2-5 independent experiments.
as §1

[5] = monkey striatum, 1 nM (3H)CFT, mean ± S.D., read-out: Dopamine transporter (DAT) IC50
[6] = (3H)serotonin transport Ki, HEK-293 cells with human SERT, 20 nM (3H)serotonin, mean ± S.E.M.
[7] = HEK-293 cells with human SERT, 1 nM (3H)citalopram, mean ± S.E.M., read-out: (3H)citalopram binding Ki

SMILES	Ki [1] [µM]	IC50 [2, 5] [µM]	Ki [3, 6] [µM]	blocked (3H)serotonin transport (in words) [3]	IC50 [4] [µM]	selectivity for the serotonin over the dopamine transporter (in words) ([4]; monkey striatum)	reduction of potency for the SERT on substitution of the 8-oxa with an 8-carba ([4]; monkey striatum, O-1391 versus O-1072) [fold]	SERT/DAT Selectivity ([4]; monkey striatum)	melting point [°C]	IC50 [2] [µM]	Ki [1, 7] [µM]	Ki [3] [µM]	Ki ([3]; HEK-293 cells with human SERT, 20 nM (3H)serotonin, mean ± S.E.M., read-out: (3H)serotonin transport Ki) [µM]
COC(=O)[C@@H]1[C@H]2CC[C@H](C2)C[C@@H]1c1ccc(Cl)c(Cl)c1 (racemic) [Compound O-1391, 2-β-carbomethoxy-3-β-(3,4-dichlorophenyl)bicyclo(3.2.1)octane]	0.01 ± 0.0043	0.0135 ± 0.0009	0.0111 ± 0.00744	low nanomolar range	0.0339 ± 0.00185	relatively non-selective	7	0.4	–	–	–	–	–
C=C(C)c1ccc(C2CC3CCC(O3)C2C(=O)OC)cc1 (racemic) [Compound O-1739, 2β-carbomethoxy-3β-(4-isopropenylphenyl)-8-oxabicyclo(3.2.1)octane]	0.0177 ± 0.0063	1.02	0.033 ± 0.002	low nanomolar range	0.0198 ± 0.00075	–	–	52	72.3 to 73.3	–	–	–	–
COC(=O)[C@H]1[C@@H](c2ccc(Cl)c(Cl)c2)C[C@@H]2CC[C@H]1O2 (relative stereo) [Compound O-1072, 2-β-carbomethoxy-3-β-(3,4-dichlorophenyl)-8-oxabicyclo(3.2.1)octane]	–	–	0.01 to 0.02	low nanomolar range	0.00466 ± 0.00124	relatively non-selective	–	0.8	–	0.00388 ± 0.00093	–	–	–
COC(=O)[C@H]1[C@@H](c2ccc3ccccc3c2)C[C@@H]2CC[C@H]1N2C (relative stereo) [Compound O-1229, N-methyl-2β-carbomethoxy-3β(2′-naphthyl)-8-azabicyclo(3.2.1)octane]	0.00142 ± 0.00078	–	0.00014 ± 7e-05	–	0.00219 ± 0.00018	–	–	0.2	–	0.00049 ± 4e-05	–	–	–
CC#Cc1ccc([C@H]2C[C@@H]3CC[C@@H](O3)[C@H]2C(=O)OC)cc1 (relative stereo) [Compound O-1577]	0.0326 ± 0.00788	0.545 ± 0.076	0.063 ± 0.0168	–	0.0724	modest	–	8	142 to 143	–	–	–	–
CC#Cc1ccc([C@@H]2C[C@@H]3CC[C@@H](O3)[C@H]2C(=O)OC)cc1 (relative stereo) [Compound O-1585, 2β-carbomethoxy-3α-(4′-propynylphenyl)-8-oxabicyclo(3.2.1)octane]	0.0761 ± 0.0105	0.446 ± 0.094	0.0567 ± 0.0104	–	0.152 ± 0.0265	moderately selective; also recorded: modest	–	3	–	–	–	–	–
COC(=O)[C@@H]1[C@H]2CC[C@H](C2)C[C@@H]1c1ccc2ccccc2c1 (relative stereo) [Compound O-1669, 2β-carbomethoxy-3β-(2-naphthyl)-8-bicyclo(3.2.1)octane]	0.289 ± 0.15	–	0.028 ± 0.002	low nanomolar range	0.0725 ± 0.0126	relatively non-selective	–	0.4	–	0.0271 ± 0.0001	–	–	–
COC(=O)[C@@H]1[C@H]2CC[C@H](C2)C[C@H]1c1ccc2ccccc2c1 (relative stereo) [Compound O-1670, 2β-carbomethoxy-3α-(2-naphthyl)-8-bicyclo(3.2.1)octane]	–	–	–	–	0.0777 ± 0.0135	relatively non-selective	–	0.3	–	0.0212 ± 0.0041	0.303 ± 0.0087	0.425 ± 0.332	–
C=C(C)c1ccc([C@@H]2C[C@@H]3CC[C@@H](O3)[C@H]2C(=O)OC)cc1 (relative stereo) [Compound O-1738, 2β-carbomethoxy-3α-(4-isopropenylphenyl)-8-oxabicyclo(3.2.1)octane]	0.218 ± 0.0451	0.912 ± 0.1	0.376 ± 0.074	–	0.158 ± 0.023	moderately selective	–	6	–	–	–	–	–
C=C(C)c1ccc(C2CC3CCC(O3)C2C(=O)OC)cc1 (single isomer, unassigned) [Compound O-1809, 2β-carbomethoxy-3β-(4-isopropenylphenyl)-8-oxabicyclo(3.2.1)octane]	0.0096 ± 0.0013	1.01	0.016 ± 0.004	low nanomolar range	0.0102 ± 0.0021	–	–	99	–	–	–	–	–
COC(=O)C1C(c2ccc3ccccc3c2)CC2CCC1N2C (stereo not drawn) [Compound O-1228, N-methyl-2β-carbomethoxy-3-(2′-naphthyl)-8-azabicyclo(3.2.1)octane]	–	0.00057 ± 0.00034	–	–	–	–	–	–	–	–	0.00326 ± 0.00026	–	0.00457 ± 0.00037
